Here are results for five compounds from patent US20090156646A1, “PYRIDYLPHENOL COMPOUND AND USE THEREOF” (TAKEDA PHARMACEUTICAL COMPANY LIMITED, priority 2005, published 2009).

Usually pIC50 stands for the negative decadic logarithm of the IC50, by convention in mol/L. As usually defined, the melting point is the temperature of the solid-liquid transition.

The structures appear in SMILES notation. pIC50: −log10 of the molar value. Counter-ions that a name gives are not always drawn.

For data set [1], the target named is T1, human metastin receptor hOT7T175 (Homo sapiens, UniProt Q969F8, L364H).
T1 construct: encoding the entire length of human metastin receptor hOT7T175; expressed in transfected cells; host or cells: CHO/dhFr- cells (ATCC #CRL-9096) stably transfected with pAKKO-hOT7T175; clone h175-16 was used as whole cells for FLIPR
T1 sequence (Q969F8 whole entry L364H): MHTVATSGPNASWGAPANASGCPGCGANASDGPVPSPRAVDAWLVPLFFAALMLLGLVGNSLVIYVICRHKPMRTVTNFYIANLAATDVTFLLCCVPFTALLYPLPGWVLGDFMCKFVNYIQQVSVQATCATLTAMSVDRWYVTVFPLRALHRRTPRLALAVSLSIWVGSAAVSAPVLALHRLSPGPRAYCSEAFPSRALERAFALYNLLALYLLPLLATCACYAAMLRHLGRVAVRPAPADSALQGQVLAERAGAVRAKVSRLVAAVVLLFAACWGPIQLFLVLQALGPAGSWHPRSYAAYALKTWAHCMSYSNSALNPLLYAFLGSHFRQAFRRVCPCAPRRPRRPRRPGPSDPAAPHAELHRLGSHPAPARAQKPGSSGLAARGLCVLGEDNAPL
The data set is described as follows: binding inhibiting activity: 125I-metastin (40-54) binding to cell membrane fraction of h175 KB34 cells. The note with it: room temperature 60 minutes, read-out: binding inhibiting activity, represented by the IC50 value. In outline: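 The assay buffer (pH 7.4 Tris with magnesium acetate, EGTA and a protease-inhibitor cocktail) was used either plain or supplemented with 1 mg/ml BSA. The radioligand was 125I-labelled human metastin (40-54). The receptor source was a 250-fold diluted membrane fraction of the stable CHO/dhfr− line h175 KB34.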

Data set [2] concerns the target T1, human metastin receptor hOT7T175. As to the kind of experiment: FLIPR assay of metastin-induced change in intracellular calcium in h175-16 cells (antagonist activity). Format: cell-based. The note with it: human metastin (40-54) as ligand, Fluo-3 fluorescence. The procedure:
cDNA fragments (SEQ ID NO: 2) encoding the entire length of human metastin receptor hOT7T175 were incorporated into expression vector pAKKO1.11H to produce animal cell expression plasmids pAKKO-hOT7T175. CHO/dhFr-cells (ATCC, #CRL-9096) were seeded onto 6 cm culture dishes (Becton Dickinson) at a density of 0.3×10^6 cells/dish, and cultured in the conditions of 48 hours, 37° C. and 5% CO2. 5 μg pAKKO-hOT7T175 plasmid DNA was transfected to the resultant cells by a known method (described in Example 3 of WO 00/24890) using the Cellphect Transfection Kit (Amersham, #27-9268-01). The DNA-transfected cells were cultured in the Dulbecco's modified Eagle medium (DMEM) (Sigma, #D6046) containing 10% dialyzed FBS (Biowest, #S180D), 1× Non-Essential Amino Acid (Invitrogen, #11140-050) and 50 μg/ml Gentamycin (Invitrogen, #15750-060; and cell strains stably expressing the plasmid genes were selected. The obtained 41 clones were treated with the FLIPR assay (in accordance with the method described in Example 3 of WO 00/24890), and the reactivity to the human metastin […] (Nos. 40 to 54 of the human metastin sequence; Peptide Institute, Inc., #4389-v) was evaluated. In the end, h175 KB34 cell strains were selected. By substantially the same method, h175-16 cell strains were also produced.
The h175-16 cell strains prepared in Test Example 1 were seeded onto a 96-well plate (Corning, #3904) at 3×10^4 cell/well, and cultured for 24 hours on a CO2 incubator (cell seeding plate).
A calcium kit buffer containing 0.1% BSA [20 mM HEPES, 115 mM NaCl, 5.4 mM KCl, 0.8 mM MgCl2, 1.8 mM CaCl2, 13.8 mM D-glucose, pH 7.4, with an attached calcium kit produced by Dojin] was prepared and kept warm at 37° C. Then, the medium in the wells of the cell seeding plate was removed, and […] of the calcium kit buffer was added to each well. 50 μl 250 mM Probenecid (with an attached calcium kit produced by Dojin), 80 μl 5% Pluronic F-127 (with an attached calcium kit produced by Dojin) and 25 μl Fluo-3 AM (powder with an attached calcium kit produced by Dojin was dissolved in DMSO at 1 mg/ml) were added to the calcium kit buffer containing 5 ml 0.1% BSA (an amount for measuring one plate) to prepare a loading solution. 50 μl of the loading solution was added to each well to allow a reaction at 37° C. for 1 hour. Thus, Fluo-3 AM was loaded onto the cells. Then, the solution in each well was removed, and 100 μl of the calcium kit buffer containing 1.25 mM Probenecid and 0.1% BSA was added to each well.
50 μl of a test compound diluted with the calcium kit buffer containing 0.1% BSA was added to each well, and stirred by a plate shaker. A cell plate, and a ligand plate provided with human metastin (40-54) (AnyGen) diluted to 400 μM with the calcium kit buffer containing 0.1% BSA, were set to the Fluorometric Imaging Plate Reader (FLIPR, Molecular Devices), and […] was added to each well using an automatic divider in the FLIPR. A change in the calcium concentration in the cells, which corresponded to the ligand response, was measured by a CCD camera in the FLIPR as a change in the amount of fluorescence of Fluo-3. The obtained change in the amount of fluorescence was plotted against the concentration of the test compound, and the compound concentration at which 50% of the change in the amount of fluorescence (i.e., IC50 value) was inhibited was calculated.
In general terms: A change in cytosolic calcium serves as a functional read-out for many receptors and channels.

The test system of data set [3] is blood LH level. The data set is described as follows: Suppression of the blood LH level of castrated rats. Conditions: male castrated Wistar rats. Format: in vivo, rat. The procedure: The compound of Example 303 was intravenously administered to male castrated rats, and the blood LH level was measured. Male Wistar rats (Japan SLC, Inc.), which were castrated 7 days before the experiment and were 11 weeks old at the time of the experiment, were used. […] To the control animals (n=8), only 20% DMSO-[…]% PEG400 used as a dispersion medium was intravenously administered in an amount of 0.8 ml/kg every 10 minutes, 5 times in succession. […] The LH concentration in the plasma was measured by radioimmunoassay. […] The start time of the administration was set to 0 (represented with the arrow).

On to `Cl.N#Cc1c(-c2cccc(C(=O)NCCN)c2)cc(-c2ccccc2O)nc1NC(=O)c1cccs1` [Example 3, N-[4-(3-{[(2-aminoethyl)amino]carbonyl}phenyl)-3-cyano-6-(2-hydroxyphenyl)pyridin-2-yl]thiophene-2-carboxamide hydrochloride], for which the melting point was 203 to 210 °C. Further, in data set [1], the pIC50 was no less than 5.00. The pIC50 in data set [2] is no less than 5.00.

In turn, `Cl.N#Cc1c(-c2cccc(NC(=O)CCN)c2)cc(-c2ccccc2O)nc1NC(=O)c1cccs1` [Example 14, N-{4-[3-(β-alanylamino)phenyl]-3-cyano-6-(2-hydroxyphenyl)pyridin-2-yl}thiophene-2-carboxamide hydrochloride] gave a melting point of 223 to 228 °C. Also, the negative-log IC50 (pIC50) in data set [1] was no less than 5.00. In addition, the pIC50 in data set [2] is no less than 5.00.

Consider `N#Cc1c(-c2cccc(NC(=O)CCCN)c2)cc(-c2ccccc2O)nc1NC(=O)c1cccs1` [Example 23, N-[4-{3-[(4-aminobutanoyl)amino]phenyl}-3-cyano-6-(2-hydroxyphenyl)pyridin-2-yl]thiophene-2-carboxamide dihydrochloride], for which the pIC50 in data set [1] and in data set [2] was no less than 5.00 each time.

Regarding `NCCC(=O)Nc1cccc(-c2cc(NC(=O)c3cccs3)nc(-c3ccccc3O)c2)c1` [Example 27, N-{4-[3-(β-alanylamino)phenyl]-6-(2-hydroxyphenyl)pyridin-2-yl}thiophene-2-carboxamide dihydrochloride], the pIC50 in data set [1] and in data set [2] was no less than 5.00 throughout.

In the case of `Cl.N#Cc1c(-c2cccc(N3CCNCC3)c2)cc(-c2ccc(F)cc2O)nc1NC(=O)c1ccco1` [Example 303, N-[3-cyano-6-(4-fluoro-2-hydroxyphenyl)-4-(3-piperazin-1-ylphenyl)pyridin-2-yl]-2-furamide hydrochloride], in data set [3] (intravenous 0.22 mg/kg every 10 minutes 5 times, 60 minutes after the start of administration, P<0.01), the “blood LH concentration, % of that of the control group” value turned out to be 68%. Also, the “effect on blood LH concentration (in words)” value in data set [3] (intravenously administered) was “significantly decreasing the blood LH concentration”. For the same compound, the pIC50 in data set [1] was no less than 5.00.
